What all share (assay): NCI anticancer screen, dose series, 48 h
For assay [1], the system named is 786-0.
Assay [2] has as its system SR.
Assay [3] concerns MOLT-4.
Assay [4] relates to UACC-257.
Assay [5] deals with NCI-H522.
The test system of assay [6] is EKVX.
The subject of assay [7] is HCC 2998.
Assay [8] concerns HOP-92.
For assay [9], the system named is RPMI-8226.
The test system of assay [10] is SNB-19.
Assay [11] has as its system SF-268.
The test system of assay [12] is OVCAR-3.
Assay [13] deals with HCT-116.
The test system of assay [14] is HOP-62.
The test system of assay [15] is CCRF-CEM.
Assay [16] relates to HL-60.
In assay [17] the test system is A498.

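Cells were grown in 96-well plates and exposed to each compound for 48 hours at five concentrations; endpoints were interpolated linearly between bracketing concentrations, or set to the highest concentration if not reached. GI50: concentration for 50% inhibition of growth.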 Activity calls are given as the source filed them. Cut-off read from the data, not from the text of the source: active = GI50 up to about 1.1 µM and inactive = higher. Where only a bound is given, the exact number is not on record here.

Consider 14 compounds from ChEMBL document CHEMBL1201862, “PubChem BioAssay data set” (2004).

Consider `CCOC(=O)C(NO)C(Sc1ccccc1)c1ccc(OC)cc1` (centres undefined), for which the GI50 is > 100 µM (inactive) in [1]; > 100 µM (inactive) in assay [2]; 42.1 µM (inactive) in assay [3]; 65.9 µM (inactive) in assay [4]; 34.8 µM (inactive) in assay [5]; > 100 µM (inactive) in assay [6]. For the same compound, the GI50 in [7] is > 100 µM (inactive); in [8], > 100 µM (inactive); in [9], 55.3 µM (inactive); in assay [10], > 100 µM (inactive); in assay [11], > 100 µM (inactive); in assay [12], 91 µM (inactive). The GI50 in [13] was 34.9 µM (inactive); in assay [14], 88.3 µM (inactive).

With `COC(=O)C1=C(C(=O)OC)C2(C)OC1C(=O)C21CC1` (centres undefined), the GI50 in [1] is 38.7 µM (inactive); in [2] it was 19 µM (inactive); in [3] it was 19.5 µM (inactive); in assay [4] it was 57.1 µM (inactive); in assay [5], 11.2 µM (inactive); in assay [6], 39.7 µM (inactive). Moreover, the GI50 in [7] is 25.5 µM (inactive); in assay [15], 16.9 µM (inactive); in [9] it was 16.9 µM (inactive); in assay [10] it was > 100 µM (inactive); in assay [11], 54.5 µM (inactive); in assay [12], 22.1 µM (inactive). Moreover, the GI50 in assay [16] was 16.7 µM (inactive); in assay [13], 19.8 µM (inactive); in assay [14], > 100 µM (inactive).

For `COc1ccc(C(=O)C(C(=O)C(=O)Nc2ccc(Cl)c(Cl)c2)c2ccc(OC)cc2)cc1` (centres undefined), the GI50 in assay [1], in assay [3], in assay [4], in assay [6], in [7] and in assay [17] was > 100 µM (inactive) in each case. Besides, the GI50 in [8] was > 100 µM (inactive); in assay [9] it was > 100 µM (inactive); in [10] it was > 100 µM (inactive); in assay [11], > 100 µM (inactive); in assay [12] it was > 100 µM (inactive); in assay [16] it was 78.5 µM (inactive). The GI50 in [13] and in assay [14] was > 100 µM (inactive) each time.

In the case of `O=C1CCN2C(=Nc3cccc4cccc2c34)N1`, the GI50 in assay [1] was 26.1 µM (inactive); in assay [2], > 100 µM (inactive); in [3], > 100 µM (inactive); in assay [4], > 100 µM (inactive); in [6], 0.551 µM (active); in assay [7], > 100 µM (inactive). Besides, the GI50 in assay [15], in assay [9], in assay [10], in [11], in [16] and in [13] was > 100 µM (inactive) throughout. For the same compound, the GI50 in assay [14] is > 100 µM (inactive).

`Cc1ccc(C2=Nc3ccccc3SC(c3cccc4c3OCO4)C2)cc1` (centres undefined): the GI50 was 19 µM (inactive) in assay [1]; 17.9 µM (inactive) in [3]; 18 µM (inactive) in assay [4]; 13.9 µM (inactive) in [5]; 21.1 µM (inactive) in [6]; 20.9 µM (inactive) in assay [7]. Besides, the GI50 in assay [17] is 14.7 µM (inactive); in assay [15] it was 15.7 µM (inactive); in assay [9], 17.7 µM (inactive); in assay [10] it was 16.1 µM (inactive); in assay [11], 21.1 µM (inactive); in assay [12] it was 14.8 µM (inactive). The figures for the GI50 in assay [16] and in [14] were 17.4 µM (inactive) and 33.1 µM (inactive), respectively.

Turning to `CP(C)C.[Ag][I]`, the GI50 in assay [1], in assay [2], in assay [3], in [4], in assay [6] and in assay [7] was > 100 µM (inactive) throughout. Moreover, the GI50 is 40.2 µM (inactive) in assay [8]; 22 µM (inactive) in assay [15]; > 100 µM (inactive) in [9]; > 100 µM (inactive) in assay [10]; > 100 µM (inactive) in assay [11]; > 100 µM (inactive) in [12]. For the same compound, the GI50 in assay [16] was > 100 µM (inactive); in assay [13] it was 58.3 µM (inactive); in assay [14] it was > 100 µM (inactive).

For the compound `O=C(Cc1nc2ccccc2s1)C(=O)Nc1ccc(Cl)cc1Cl`, the GI50 in [1] is > 100 µM (inactive); in assay [2], > 100 µM (inactive); in assay [3], > 100 µM (inactive); in assay [4], > 100 µM (inactive); in assay [7], > 100 µM (inactive); in assay [8], 65.8 µM (inactive). The GI50 is > 100 µM (inactive) in assay [9]; > 100 µM (inactive) in [10]; > 100 µM (inactive) in assay [11]; > 100 µM (inactive) in assay [12]; > 100 µM (inactive) in assay [13]; 39.9 µM (inactive) in [14].

As for `CCCCNC1=C(C(=O)OCC)C(=O)CO1`, the GI50 in [1], in assay [3], in assay [4], in [5], in assay [6] and in assay [7] was > 100 µM (inactive) throughout. Moreover, the GI50 in assay [15], in assay [9], in assay [10], in assay [11], in assay [12] and in assay [16] was > 100 µM (inactive) throughout. For the same compound, in [14], the GI50 was > 100 µM (inactive).

Consider `CC(=O)OC1C(CCl)OC(N=[N+]=[N-])C(OC(C)=O)C1OC(C)=O` (centres undefined), for which the GI50 in assay [1], in assay [3], in [4], in assay [5], in [6] and in [7] was > 100 µM (inactive) in each case. Moreover, the GI50 in assay [17], in [15], in assay [9], in assay [10], in [11] and in assay [12] was > 100 µM (inactive) throughout. The GI50 in assay [16], in assay [13] and in assay [14] was > 100 µM (inactive) each time.

Regarding `COc1ccc2[nH]cc(CCNC(C)=O)c2c1` [MELATONIN], the GI50 in assay [1] was 88.5 µM (inactive); in assay [3] it was > 100 µM (inactive); in [4], > 100 µM (inactive); in [5] it was > 100 µM (inactive); in assay [6], > 100 µM (inactive); in assay [17] it was > 100 µM (inactive). Further, the GI50 in assay [8] was > 100 µM (inactive); in assay [15], > 100 µM (inactive); in assay [9], 22.1 µM (inactive); in assay [10] it was > 100 µM (inactive); in assay [11] it was > 100 µM (inactive); in assay [12], > 100 µM (inactive). For the same compound, the GI50 in assay [16], in assay [13] and in assay [14] was > 100 µM (inactive) throughout.

Regarding `Cc1ccc(C(O)(c2ccc(C)cc2)c2ccccn2)cc1`, the GI50 was > 100 µM (inactive) in [1]; > 100 µM (inactive) in [4]; 86.7 µM (inactive) in assay [6]; > 100 µM (inactive) in assay [7]; > 100 µM (inactive) in [17]; 51.5 µM (inactive) in assay [15]. Also, the GI50 is > 100 µM (inactive) in assay [9]; > 100 µM (inactive) in [10]; > 100 µM (inactive) in assay [11]; > 100 µM (inactive) in assay [12]; 68.9 µM (inactive) in [13]; > 100 µM (inactive) in assay [14].

Turning to `CC(C)(C)C(=O)OC12/C(=N/O)CCCCCC1c1ccccc12` (centres undefined), the GI50 in assay [1] is 17.2 µM (inactive); in assay [3], 14.5 µM (inactive); in [4], 15 µM (inactive); in assay [5] it was 17.8 µM (inactive); in assay [7], > 100 µM (inactive); in [17] it was 16.9 µM (inactive). Besides, the GI50 in [15] was 23.4 µM (inactive); in [9], 11.9 µM (inactive); in assay [10] it was 17.4 µM (inactive); in assay [11], 16.4 µM (inactive); in [12], 17.4 µM (inactive); in assay [16], 18.2 µM (inactive). Besides, the values for the GI50 in assay [13] and in assay [14] were 14.4 µM (inactive) and 21.7 µM (inactive), respectively.

On to `CN(C)C(=S)/N=c1\ssc(=S)n1-c1ccccc1`, for which the GI50 was 16.8 µM (inactive) in assay [1]; 15.7 µM (inactive) in assay [4]; 14.5 µM (inactive) in assay [5]; 23.4 µM (inactive) in [6]; 19.6 µM (inactive) in assay [7]; 21.3 µM (inactive) in assay [17]. Also, the GI50 was 20.4 µM (inactive) in assay [8]; 0.36 µM (active) in assay [15]; 39.6 µM (inactive) in assay [10]; 16.9 µM (inactive) in assay [11]; 18.1 µM (inactive) in [16]; 13.7 µM (inactive) in [13]. The GI50 in [14] is 34.2 µM (inactive).

Turning to `COc1cc(N)c2[nH]c3c(C)ccc(C)c3c2c1`, the GI50 in assay [1], in assay [2], in [3], in assay [4], in assay [5] and in assay [6] was > 100 µM (inactive) each time. Besides, the GI50 in assay [7], in assay [15], in assay [9], in assay [10], in assay [11] and in assay [12] was > 100 µM (inactive) throughout. In addition, the GI50 in assay [16], in assay [13] and in assay [14] was > 100 µM (inactive) throughout.
